Laboratory results published in ChEMBL document CHEMBL5523762, “Discovery of Potent and Selective G9a Degraders for the Treatment of Pancreatic Cancer” (J Med Chem, 2024).
Active and inactive are the calls of the source. The rule behind the calls is not given here.

How the values were obtained:
[1] = molecular target: T1, Protein cereblon/Histone-lysine N-methyltransferase EHMT1 (Homo sapiens) (UniProt Q9H9B1+Q96SW2); assay: PROTAC activity at CRBN/GLP in human ASPC1 cells assessed as induction of GLP degradation at 0.008 to 20 uM measured after 8 hrs by Western blot analysis; type: cell-based; conditions: dose 0.008-20 µM
[2] = tested on: ASPC1; assay: Synergistic antiproliferative activity against human ASPC1 cells assessed as combination index for ED90 upto 20 uM incubated for 72 hrs in presence of MRTX1133; type: functional
[3] = molecular target: T1, Protein cereblon/Histone-lysine N-methyltransferase EHMT1 (Homo sapiens); assay: PROTAC activity at CRBN/GLP in human PANC-1 cells assessed as induction of GLP degradation at 0.008 to 10 uM measured after 8 hrs by Western blot analysis; type: cell-based; conditions: dose 0.008-10 µM
[4] = tested on: KP-4; assay: Synergistic antiproliferative activity against human KP-4 cells assessed as combination index for ED90 upto 20 uM incubated for 72 hrs in presence of MRTX1133; type: functional
[5] = tested on: Panc 02.03; assay: Synergistic antiproliferative activity against human Panc 02.03 cells assessed as combination index upto 20 uM incubated for 72 hrs in presence of MRTX1133; type: functional
[6] = tested on: ASPC1; assay: Induction of apoptosis in human ASPC1 cells at 10 uM incubated for 24 hrs in presence of 1 uM MRTX1133 by Annexin V-FITC/PI staining based flow cytometry analysis; type: functional, cell-based
[7] = tested on: KP-4; assay: Antiproliferative activity against human KP-4 cells assessed as inhibition of cell growth measured after 72 hrs by SRB assay; type: functional, cell-based
[8] = molecular target: T2, Protein cereblon/Histone-lysine N-methyltransferase EHMT2 (Homo sapiens, UniProt Q96KQ7+Q96SW2); assay: PROTAC activity at CRBN/G9a in human PANC-1 cells assessed as induction of G9a degradation at 1 uM measured after 8 to 24 hrs by Western blot analysis; type: cell-based; conditions: time 8-24 hrs
[9] = tested on: PANC-1; assay: Effect on H3K27me1 level in human PANC-1 cells at 0.04 to 10 uM measured after 24 hrs by Western blot analysis; type: functional, cell-based; conditions: dose 0.04-10 µM
[10] = tested on: Panc1005; assay: Synergistic antiproliferative activity against human Panc1005 cells assessed as combination index upto 20 uM incubated for 72 hrs in presence of MRTX1133; type: functional
[11] = tested on: PANC-1; assay: Upregulation of gammaH2AX expression in human PANC-1 cells at 0.1 to 10 uM measured after 24 hrs by Western blot analysis; type: functional, cell-based; conditions: dose 0.1-10 µM
[12] = molecular target: T3, Histone-lysine N-methyltransferase EHMT2 (Homo sapiens) (UniProt Q96KQ7); assay: Inhibition of N-terminal GST tagged human recombinant G9a (785 to 1210 residues) expressed in Escherichia coli using H3(1 to 21)K9me1 and SAM as substrates incubated for 1 hr by HTRF assay
T3 sequence (whole entry): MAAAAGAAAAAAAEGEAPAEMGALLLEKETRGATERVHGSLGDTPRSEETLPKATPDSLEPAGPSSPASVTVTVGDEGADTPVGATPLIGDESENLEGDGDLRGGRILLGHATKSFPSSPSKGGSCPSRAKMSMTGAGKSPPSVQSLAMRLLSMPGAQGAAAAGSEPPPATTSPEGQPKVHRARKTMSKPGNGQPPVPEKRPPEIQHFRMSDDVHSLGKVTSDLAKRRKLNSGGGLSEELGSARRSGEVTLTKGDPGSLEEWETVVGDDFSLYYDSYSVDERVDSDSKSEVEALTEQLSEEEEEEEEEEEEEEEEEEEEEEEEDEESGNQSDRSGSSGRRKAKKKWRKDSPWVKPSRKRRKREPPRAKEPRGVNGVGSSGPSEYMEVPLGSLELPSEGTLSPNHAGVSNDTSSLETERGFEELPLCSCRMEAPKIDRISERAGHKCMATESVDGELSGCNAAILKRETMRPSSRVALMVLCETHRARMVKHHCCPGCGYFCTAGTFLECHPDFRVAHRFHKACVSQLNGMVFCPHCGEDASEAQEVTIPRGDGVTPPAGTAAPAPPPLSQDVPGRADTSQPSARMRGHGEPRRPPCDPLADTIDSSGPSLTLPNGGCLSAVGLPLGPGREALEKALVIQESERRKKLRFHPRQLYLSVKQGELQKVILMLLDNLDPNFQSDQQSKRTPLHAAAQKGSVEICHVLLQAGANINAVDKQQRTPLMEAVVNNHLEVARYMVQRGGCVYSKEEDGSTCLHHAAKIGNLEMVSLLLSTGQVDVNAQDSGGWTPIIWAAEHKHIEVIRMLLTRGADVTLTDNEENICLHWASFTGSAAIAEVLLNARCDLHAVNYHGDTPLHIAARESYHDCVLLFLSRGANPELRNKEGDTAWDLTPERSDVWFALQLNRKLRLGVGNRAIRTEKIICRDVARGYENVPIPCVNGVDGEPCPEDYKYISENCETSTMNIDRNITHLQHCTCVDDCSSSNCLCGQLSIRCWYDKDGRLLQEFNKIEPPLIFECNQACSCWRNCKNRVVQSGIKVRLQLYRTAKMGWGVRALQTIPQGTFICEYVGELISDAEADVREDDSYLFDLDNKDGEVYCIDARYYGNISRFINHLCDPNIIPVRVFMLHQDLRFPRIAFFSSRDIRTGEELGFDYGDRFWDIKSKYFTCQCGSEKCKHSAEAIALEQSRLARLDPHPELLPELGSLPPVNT

[13] = tested on: PANC-1; assay: Effect on H3K4me2 level in human PANC-1 cells at 0.04 to 10 uM measured after 24 hrs by Western blot analysis; type: functional, cell-based; conditions: dose 0.04-10 µM
[14] = tested on: PANC-08-13; assay: Synergistic antiproliferative activity against human PANC-08-13 cells assessed as combination index for ED90 upto 20 uM incubated for 72 hrs in presence of MRTX1133; type: functional
[15] = tested on: ASPC1; assay: Synergistic antiproliferative activity against human ASPC1 cells assessed as combination index upto 20 uM incubated for 72 hrs in presence of MRTX1133; type: functional
[16] = molecular target: T2, Protein cereblon/Histone-lysine N-methyltransferase EHMT2; assay: PROTAC activity at CRBN/G9a in human PANC-1 cells assessed as downregulation of G9a protein level at 1 uM measured after 8 hrs by quantitative proteomics analysis; type: cell-based
[17] = tested on: Panc 04.03; assay: Antiproliferative activity against human Panc 04.03 cells assessed as inhibition of cell growth measured after 72 hrs by SRB assay; type: functional, cell-based
[18] = tested on: PANC-1; assay: Downregulation of H3K9me2 expression in human PANC-1 cells at 0.1 to 10 uM measured after 24 hrs by Western blot analysis; type: functional, cell-based; conditions: dose 0.1-10 µM
[19] = molecular target: T1, Protein cereblon/Histone-lysine N-methyltransferase EHMT1 (Homo sapiens); assay: PROTAC activity at CRBN/GLP in human PANC-1 cells assessed as induction of GLP degradation at 1 uM measured after 8 to 24 hrs by Western blot analysis; type: cell-based; conditions: time 8-24 hrs
[20] = tested on: PANC-1; assay: Effect on H3K36me3 level in human PANC-1 cells at 0.04 to 10 uM measured after 24 hrs by Western blot analysis; type: functional, cell-based; conditions: dose 0.04-10 µM
[21] = molecular target: T1, Protein cereblon/Histone-lysine N-methyltransferase EHMT1 (Homo sapiens); assay: PROTAC activity at CRBN/GLP in human PANC-1 cells assessed as downregulation of GLP protein level at 1 uM measured after 8 hrs by quantitative proteomics analysis; type: cell-based

T1 sequence (Q96SW2 whole entry, looked up): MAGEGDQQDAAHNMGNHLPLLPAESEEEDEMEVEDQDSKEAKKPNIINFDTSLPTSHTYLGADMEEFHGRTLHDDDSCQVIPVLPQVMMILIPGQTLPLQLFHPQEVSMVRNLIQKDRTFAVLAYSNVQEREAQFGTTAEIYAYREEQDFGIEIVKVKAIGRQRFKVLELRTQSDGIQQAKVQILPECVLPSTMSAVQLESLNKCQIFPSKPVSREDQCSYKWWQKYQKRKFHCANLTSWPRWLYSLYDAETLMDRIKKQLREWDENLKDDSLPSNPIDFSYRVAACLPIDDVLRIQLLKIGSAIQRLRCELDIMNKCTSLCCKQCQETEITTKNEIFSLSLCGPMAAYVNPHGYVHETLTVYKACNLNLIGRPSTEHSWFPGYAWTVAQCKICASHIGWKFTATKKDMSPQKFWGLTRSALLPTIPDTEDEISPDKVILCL
T1 sequence (Q9H9B1 whole entry, looked up): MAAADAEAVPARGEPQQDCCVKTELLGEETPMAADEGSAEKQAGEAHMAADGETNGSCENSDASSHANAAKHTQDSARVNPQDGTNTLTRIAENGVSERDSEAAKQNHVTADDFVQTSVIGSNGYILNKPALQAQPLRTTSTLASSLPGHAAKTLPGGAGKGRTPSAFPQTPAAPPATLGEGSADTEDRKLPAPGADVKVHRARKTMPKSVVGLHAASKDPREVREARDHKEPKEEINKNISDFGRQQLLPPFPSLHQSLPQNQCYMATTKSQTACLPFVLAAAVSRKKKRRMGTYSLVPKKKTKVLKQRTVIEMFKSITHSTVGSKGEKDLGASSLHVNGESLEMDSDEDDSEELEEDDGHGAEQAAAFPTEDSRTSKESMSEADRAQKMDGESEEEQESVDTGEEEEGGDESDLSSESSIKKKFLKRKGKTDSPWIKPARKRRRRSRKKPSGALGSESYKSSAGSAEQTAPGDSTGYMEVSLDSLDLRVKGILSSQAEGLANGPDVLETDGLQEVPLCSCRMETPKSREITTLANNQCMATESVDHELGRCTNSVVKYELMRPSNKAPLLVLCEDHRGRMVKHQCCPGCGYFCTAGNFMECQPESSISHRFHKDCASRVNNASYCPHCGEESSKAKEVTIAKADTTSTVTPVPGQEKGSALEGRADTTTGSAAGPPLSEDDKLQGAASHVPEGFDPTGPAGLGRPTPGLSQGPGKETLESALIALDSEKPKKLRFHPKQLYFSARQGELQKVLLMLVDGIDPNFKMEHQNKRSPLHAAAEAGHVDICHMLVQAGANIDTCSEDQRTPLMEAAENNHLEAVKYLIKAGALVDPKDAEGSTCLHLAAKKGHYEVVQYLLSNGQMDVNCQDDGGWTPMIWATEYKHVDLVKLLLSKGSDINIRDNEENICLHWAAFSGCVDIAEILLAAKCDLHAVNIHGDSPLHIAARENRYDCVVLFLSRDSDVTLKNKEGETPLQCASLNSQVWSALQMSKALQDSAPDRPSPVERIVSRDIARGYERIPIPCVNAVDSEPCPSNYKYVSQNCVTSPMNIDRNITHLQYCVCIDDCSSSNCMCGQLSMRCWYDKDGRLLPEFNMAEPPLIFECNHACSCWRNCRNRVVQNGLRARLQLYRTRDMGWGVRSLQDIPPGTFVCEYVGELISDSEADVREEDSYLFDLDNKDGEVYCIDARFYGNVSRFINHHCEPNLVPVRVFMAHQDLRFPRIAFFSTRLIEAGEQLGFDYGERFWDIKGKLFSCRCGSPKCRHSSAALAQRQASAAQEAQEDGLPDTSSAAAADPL
T2 sequence (Q96SW2 whole entry partner, one chain of several): as the sequence (Q96SW2 whole entry, looked up) above

- Activity [1]: inactive
- Activity [3]: inactive
- Activity [8]: Active
- inhibition [12]: Active
- Activity [16]: Active
- Activity [19]: inactive
- Activity [21]: inactive
Compound: COc1cc2c(NC3CCN(CCCC(=O)NCCCCCCCCNc4cccc5c4C(=O)N(C4CCC(=O)NC4=O)C5=O)CC3)nc(C3CCCCC3)nc2cc1OCCCN1CCCC1 (stereo unspecified)
- CI [2]: <0.4
- CI [4]: <0.4
- CI [5]: <0.8
- Activity [6]: Active
- Activity [7]: Active
- Activity [9]: inactive
- CI [10]: <0.8
- Activity [11]: Active
- Activity [13]: inactive
- CI [14]: <0.4
- CI [15]: <0.8
- Activity [17]: Active
- Activity [18]: Active
- Activity [20]: inactive
